Holding throughout (format): cell-based
In assay [1] the test system is human mesenchymal stem cells (hMSC). Briefly: Neural differentiation of hMSCs: gene expression by real-time PCR. The method, then:
(§1) To investigate the neural differentiation capacity of the peptides, 25 cm^2 flasks and 12-wells culture plates were coated with sterile aqueous solutions of either NX210 or NS640 at a concentration of 80 μg/cm^2. Coatings were carried out at 37° C. and 5% CO2 over-night prior to cell plating.
On Day 0 (D0), hMSC were seeded at a concentration of 3,000 cells/cm^2 in pre-coated 25 cm^2 flasks or 12-well culture plates in complete medium and culture was placed at 37° C. in a humid environment and under 5% CO2. After 24h, medium was changed and replaced by different combinations of media containing either: MEMalpha—bFGF 12.5 ng/mL—FBS 2%—P/S 0.1%; MEMalpha—bFGF 12.5 ng/mL—FBS 10%—P/S 0.1%; MEMalpha—FBS 2%—P/S 0.1% (control condition); MEMalpha—FBS 10%—P/S 0.1% (control condition). The cells were placed at 37° C. in a humid environment and under 5% CO2, and medium was changed twice a week. On Day 8, medium was replaced by medium containing ATRA in the place of bFGF and thus was changed with: MEMalpha—ATRA […]—FBS 2%—P/S 0.1%; MEMalpha—ATRA 20 μM—FBS 10%—P/S 0.1%; MEMalpha—FBS 2%—P/S 0.1% (control condition); MEMalpha—FBS 10%—P/S 0.1% (control condition). The cells were placed at 37° C. in a humid environment and under 5% CO2. Medium was changed twice a week. […]
Total RNA was extracted using RNAeasy total purification kit following instructions of the manufacturer (Qiagen). cDNA were generated using a High-Capacity cDNA Reverse Transcription kit (Applied Biosystems) as described by the manufacturer.
The expression levels of genes (GFAP, Musashi 1, Nestin, Beta3-Tubuline, MAP-2 and GAPDH) were analyzed by real-time PCR using TaqMan gene Expression Master Mix (Applied Biosystems) on the Applied Biosystems 7900 Real time PCR system (Life technologies). Samples were analyzed in triplicates. Data were normalized using the GAPDH gene as an internal control and relative quantification (RQ) of the genes in a sample was determined according to the equation 2^−Δct.

The test system is the same in assay [2]. As to the kind of experiment: Cell proliferation of hMSCs depending on the culture conditions. The settings on record: whatever the conditions / FBS concentration (2% or 10% FBS).
Description: Adult human bone marrow mononuclear cells Ficoll-extracted from two donors were obtained from Lonza. Cells were passaged once a week. The human mesenchymal stem cells (hMSC) were selected by plastic adherence and expanded by plating 50 000 cells/cm^2 in Modified Eagle Medium Alpha (MEMalpha, MacoPharma) supplemented with 10% Fetal Bovine Serum (FBS, PAA Laboratoires) and 0.1% Penicilline/Streptomycine (P/S, Lonza). The culture medium was changed after 3 days and then every day. After 2 to 5 weeks of culture at 37° C. in a humid environment and under 5% CO2, hMSC were harvested by trypsinization. The phenotype was confirmed by FACS analysis (BD Bioscience, BD LSR II) with CD73, CD90 and CD105 (positive), as well as CD34 and CD45 (negative) (Table 1).
as §1
On Day 0 (D0), hMSC were seeded at a concentration of 3,000 cells/cm^2 in pre-coated 25 cm^2 flasks or 12-well culture plates in complete medium and culture was placed at 37° C. in a humid environment and under 5% CO2. After 24h, medium was changed and replaced by different combinations of media containing either: MEMalpha—bFGF 12.5 ng/mL—FBS 2%—P/S 0.1%; MEMalpha—bFGF 12.5 ng/mL—FBS 10%—P/S 0.1%; MEMalpha—FBS 2%—P/S 0.1% (control condition); MEMalpha—FBS 10%—P/S 0.1% (control condition). The cells were placed at 37° C. in a humid environment and under 5% CO2, and medium was changed twice a week. […] thus was changed with: MEMalpha—ATRA […]—FBS 2%—P/S 0.1%; MEMalpha—ATRA 20 μM—FBS 10%—P/S 0.1%; MEMalpha—FBS 2%—P/S 0.1% (control condition); MEMalpha—FBS 10%—P/S 0.1% (control condition). The cells were placed at 37° C. in a humid environment and under 5% CO2. Medium was changed twice a week. On Day 15 (D15), cells were harvested by trypsinization for mRNA extraction or fixed immunocytochemical analysis.

Assay [3] has the same test system. Briefly: Neural differentiation of hMSCs: immunocytochemical analysis (Nestin, MAP-2). To be noted: bFGF. Here is the method: as §1
On Day 0 (D0), hMSC were seeded at a concentration of 3,000 cells/cm^2 in pre-coated 25 cm^2 flasks or 12-well culture plates in complete medium and culture was placed at 37° C. in a humid environment and under 5% CO2. After 24h, medium was changed and replaced by different combinations of media containing either: MEMalpha—bFGF 12.5 ng/mL—FBS 2%—P/S 0.1%; MEMalpha—bFGF 12.5 ng/mL—FBS 10%—P/S 0.1%; MEMalpha—FBS 2%—P/S 0.1% (control condition); MEMalpha—FBS 10%—P/S 0.1% (control condition). The cells were placed at 37° C. in a humid environment and under 5% CO2, and medium was changed twice a week. On Day 8, medium was replaced by medium containing ATRA in the place of bFGF and thus was changed with: MEMalpha—ATRA […]—FBS 2%—P/S 0.1%; MEMalpha—ATRA 20 μM—FBS 10%—P/S 0.1%; MEMalpha—FBS 2%—P/S 0.1% (control condition); MEMalpha—FBS 10%—P/S 0.1% (control condition). The cells were placed at 37° C. in a humid environment and under 5% CO2. Medium was changed twice a week. On Day 15 (D15), cells were harvested by trypsinization for mRNA extraction or fixed immunocytochemical analysis.
Assessment of differentiation was performed by gene expression after extraction of mRNA at various time point (DO, D1, D8 and D15), and immunocytochemical analysis performed at the end of the culture period (D15).
Immunocytochemical analyses were carried out on cells fixed in 4% paraformaldehyde and using standard protocols. After blocking with Triton 1×0.1%/BSA 5% during 30 min, cells were incubated with antibodies directed against Nestin (Millipore) or MAP-2 (Sigma) overnight at +4° C. After washing, appropriate FITC or Cyandidine-5 labelled secondary antibody are added. Nuclei were counterstained with Hoescht 33258 (Sigma). Obervations were performed using Leica TCS LSI system.

Setting [4] is: 2% FBS, with or without peptide coating (FIG. 8).

For the substance “W-S-G-W-S-S-C-S-R-S-C-G (WSGWSSCSRSCG) [NX210]”, in assay [1] (bFGF then ATRA, 2% FBS, peptide coating 80 μg/cm2), the “effect of peptide coating on the increase in Nestin, βIII-Tubulin and MAP-2 gene expression” value is on record as “does not modify this increase”. Also, the MAP-2 expression in assay [1] (bFGF then ATRA, 10% FBS, peptide coating, vs ×0.75 without peptide (FIG. 5)) is recorded as 1.21 ×; in assay [1] (patient no 2, D5, with bFGF (FIG. 7)), “increased”. In addition, the Nestin expression was found to be 2 × in assay [1] (bFGF then ATRA, 10% FBS, peptide coating, vs ×1.2 without peptide (FIG. 5)); 2 × in assay [1] (patient no 1, day 5, bFGF 10% without ATRA (FIG. 6)); 1.95 × in assay [1] (patient no 2, bFGF 10% without ATRA, with or without coating (FIG. 7)). In addition, the βIII-Tubuline expression result in assay [1] (patient no 2, after 5 days of culture, with bFGF (FIG. 7)) is “maximized”. The “effect on cell proliferation (number of MSCs)” value in assay [2] is listed as “no effect”. Besides, in assay [3] (setting [4]), the “MAP-2 marker expression (immunocytochemistry staining)” value is “stronger staining”. Also, the “Nestine marker expression (immunocytochemistry staining)” value in assay [3] (setting [4]) was “stronger staining”. In assay [3] (10% FBS, peptide coating (FIG. 8)), the MAP-2 protein presence entry is reported as “makes possible to observe MAP-2 protein presence”. Further, the “Nestine expression (staining intensity)” value in assay [3] (10% FBS, with or without peptide coating, compared to the control condition (FIG. 8)) is “maximized”.

For the origin of these results see patent US20200080053A1, “USE OF PEPTIDE COMPOUNDS FOR PROMOTING SURVIVAL, GROWTH AND CELL DIFFERENTIATION” (Axoltis Pharma, priority 2016, published 2020).
